Experimental data published in patent publication US5153183A, “Methylenediphosphonic acid compounds and methods of use for the treatment of rheumatism and osteophorosis” (Toray Industries, Inc., priority 1989, dated 1992).

How the values were obtained:
Lewis female rat = assay: Adjuvant arthritis test; type: in vivo; details: 50 mg/kg oral daily, 8th to 21st day after adjuvant injection, 6 cases; for Edema inhibiting rate against control group, +14 day, Left / Edema inhibiting rate against control group, +21 day, Left: left hindpaw (injected); for Edema inhibiting rate against control group, +14 day, Left / Edema inhibiting rate against control group, +14 day, Right: day 14; for Edema inhibiting rate against control group, +21 day, Left / Edema inhibiting rate against control group, +21 day, Right: day 21; for Edema inhibiting rate against control group, +14 day, Right / Edema inhibiting rate against control group, +21 day, Right: right hindpaw; for Zonal bone damage inhibiting rate against control group, +22 day: soft X-ray of hindlegs, day 22
Method: When a Mycobacterium butyricum adjuvant is injected into a rat, there occurs polyarthritis similar to human rheumatoid arthritis. Using such an adjuvant arthritis model, the anti-inflammatory and anti-rheumatic effects of the compounds of the present invention and the reference were examined according to the following procedure.
0.1 mg of dry dead Mycobacterium butyricum was suspended in 0.1 ml of liquid paraffin, and the suspension was injected into the skin of the sole of the left hindpaw of a Lewis female rat, 7-weeks old. The compounds obtained in Examples 2 and 4 and Reference were respectively dissolved in sterilized distilled water and orally administered at a dose of 50 mg per kg of body weight every day for two weeks from the 8th to 21st day after adjuvant injection. The volumes of the left and right hindpaws were measured. Edema density was calculated according to the formula [formula] and the Edema inhibiting rate was obtained according to the formula [formula] with the results shown in Table 1.
On the 22nd day, the rats were sacrificed, and soft X-ray photos of the left and right hind-legs were taken, and, based on the soft X-ray photos, the extent of bone damage at 5 zones on the left and right hindlegs was evaluated in points of 5 ranks, and the total points were taken as the zonal bone damage index. Further, the zonal bone damage inhibiting rate was calculated according to the formula [formula] with the results shown in Table 1.
The results thus obtained had ** noted for those which were significant according to the Student t-test and Tukey multiple comparison method with a perilous rate p<0.02 against the control group having only the sterilized distilled water administered and * noted for those which were significant with a perilous rate p<0.05.

osteoclasts = assay: Bone resorption inhibition test; type: cell-based; details: Mus musculus, Osteoclast, 120 h, active-type vitamin D3 (10^-10 M), ivory lamella, 5 days, read-out: Bone resorption inhibiting rate against control group
Method: With an osteoclast fraction prepared from the hindleg of a mouse placed on a lamella of ivory and stimulated by active-type vitamin D3 there is an resorption lacuna produced on the surface of ivory due to the absorption activity of the osteoclast. Using this absorption model of the bone, the bone resorption inhibiting effect of the compound of the invention was examined according to the following procedure.
5 μl of a suspension of osteoclasts prepared from the hindleg of a mouse was placed on a lamella of ivory and cultured in 500 μl of a 5% calf serum α-added MEM medium containing active-type vitamin D3 (10^-10 M) and the compound of the present invention ([…] or 10^-5 M) for 5 days. After culturing, the osteoclasts were removed from the ivory lamella, and the ivory was stained. The total area of resorption lacunae which became obvious by staining was calculated through image analysis. The bone absorption inhibiting rate was calculated by the formula [formula]

Acute toxicity test = type: in vivo, rat; details: rat, in vivo, iv, 14 days, distilled water
Method: (§1) Using female and male SD rats (5-week age), 6 rats per group, and a 10% aqueous solution of gum arabic for oral administration, and distilled water for intravenous administration as a solvent for the compound to be tested, mortality, during 14 days after administration were recorded, and the LD50 values were calculated according to the Miller and Tainter Method (1944).

SD rats = assay: Acute toxicity test; type: in vivo, rat; details: 14 days, 20160 min
Method: as §1

[1] = Oral, Female SD rats, 10% gum arabic
[2] = Oral, Male SD rats, 10% gum arabic

| SMILES | Edema inhibiting rate against control group, +14 day, Left (Lewis female rat) | Edema inhibiting rate against control group, +21 day, Left (Lewis female rat) | Edema inhibiting rate against control group, +14 day, Right (Lewis female rat) | Edema inhibiting rate against control group, +21 day, Right (Lewis female rat) | Zonal bone damage inhibiting rate against control group, +22 day (Lewis female rat) | inhibition at 10 µM (osteoclasts; 10^-5 M) | inhibition at 1 µM (osteoclasts; 10^-6 M) | LD50 at 336 h (Acute toxicity test; Female SD rats) | LD50 at 336 h (Acute toxicity test; Male SD rats) | LD50 Values (SD rats; [1]) | LD50 Values (SD rats; [2]) | LD50 Values (SD rats; Intravenous, Female SD rats, distilled water) | LD50 Values (SD rats; Intravenous, Male SD rats, distilled water) |
| --- | --- | --- | --- | --- | --- | --- | --- | --- | --- | --- | --- | --- | --- |
| CC(C)(C)c1cc(SC(P(=O)(O)O)P(=O)(O)O)cc(C(C)(C)C)c1O [Example 2, (3,5-di-t-butyl-4-hydroxyphenylthio)methylenediphosphonic acid] | 29.2% | 33.8% | 39.7% | 30.4% | 32.5% | 86% | 48% | 29.8 mg/kg | 45.2 mg/kg | 616 mg/kg | 652 mg/kg | – | – |
| CC(C)(C)c1cc(CC(P(=O)(O)O)P(=O)(O)O)cc(C(C)(C)C)c1O [Example 4, 2-(3,5-di-t-butyl-4-hydroxyphenyl)ethylidene-1,1-di-phosphonic acid] | 2.6% | 9.7% | 31.6% | 21.6% | 29.4% | – | – | – | – | – | – | – | – |
| CC(C)(C)c1cc(SC(P(=O)(O)O)P(=O)(O)O)cc(C(C)(C)C)c1O [Example 8, Disodium(3,5-di-t-butyl-4-hydroxyphenylthio)methylenediphosphonate] | – | – | – | – | – | – | – | – | – | 1770 mg/kg | 1871 mg/kg | 35.7 mg/kg | 48.2 mg/kg |
| O=P(O)(O)C(Cc1ccc(O)cc1)P(=O)(O)O [Reference compound, 2-(4-hydroxyphenyl)ethylidene-1,1-diphosphonic acid, reference compound] | 4.4% | 0.9% | 7.9% | 6.9% | 0% | – | – | – | – | – | – | – | – |
